The test system of one data set is intact rabbit cornea. In words: In vitro cytotoxicity study, percentage of living cells. Format: cell-based. The settings on record: for corneal cells died, compared to untreated cells: 0.1, 0.25 and 0.5 mg/ml, 24 hour period, FIGURE 10B; for death of corneal cells: FIGURE 10A. On the procedure: In vitro cytotoxicity studies were performed in intact rabbit cornea. Proparacaine (0.5 mM, 1 mM, 5 mM, and 10 mM), tetracaine (0.5 mM, 1 mM, 5 mM, and 10 mM), NT71 (0.1 mg/ml (0.13 mM), 0.25 mg/ml (0.32 mM), and 0.5 mg/ml (0.63 mM)), NT72 (0.1 mg/ml (0.15 mM), 0.25 mg/ml (0.38 mM), and 0.5 mg/ml (0.76 mM)), and 70% MeOH were added to intact rabbit corneas. The percentage of living cells was determined over a 24 hour period using light microscopy and fluorescence. As apparent from FIGURE 10A, tetracaine was cytotoxic to the corneal cells at concentrations as low as 0.5 mM, resulting in the death of about half of the corneal cells observed.

For data set [1], the system named is rabbit cornea. In words: In vivo superficial keratotomy, administration every 4 hours for 5 days. Also on record: species or system rabbits. An excerpt:
Anesthetized rabbits were placed under an operating microscope, a sterile lid speculum placed in the right eye, and a 6.5 mm trephine used to make a partial thickness epithelial cut centered on the pupil. A sterile beaver blade was used to remove the epithelium within the area of demarcation. A single drop of moxifloxacin 0.1% was instilled at the end of the procedure. The speculum was removed and the animal allowed to recover from the systemic anesthesia. The topical agent under investigation was placed in the eye every 4 hours for 5 days. […] The control animals underwent the same surgical procedure. At the end of the procedure, 0.5% proparacaine or vehicle was instilled in the eye every 4 hours.
Fluorescein (1%) was instilled into the eye at times 0, 1, 2, 6, 12, 36, 48, 72, 96, and 120 hours after the procedure and the size of the epithelial defect measured via slit lamp photography. The animals were scored for degree of blinking, tearing, conjunctival injection, anterior chamber inflammation, and intraocular pressure.

Data set [2] relates to primary rabbit corneal epithelial cells. In words: In vitro scratch assay, cell migration and scratch closure. Format: cell-based. The settings on record: 0.1 mg/ml and 0.5 mg/ml; FIGURES 7-9. The method, then:
The limbus was removed from both eyes of anesthetized rabbits and dissected to include 1.0 to 1.5 mm peripheral cornea and 1.0 to 1.5 mm beyond the anatomical limbus. Each limbus was divided into four small segments. Two segments were used for each 60 mm square plate.
Cultured rabbit corneal epithelial cells were utilized to measure the closure of a scratch made in a confluent epithelial monolayer in the presence of varying doses of the test compounds (0.1 mg/ml to 10 mg/ml). Uniform scratches were made in confluent monolayers of primary rabbit corneal epithelial cells ("in vitro scratch assay").
Individual cell migration assays were performed in the presence of the test compounds and compared with standard doses of tetracaine and proparacaine. Movement of cells from the edge of the scratch (wound) toward the middle of the scratch (wound) were measured over 24 hours. […] Cells in which NT71 and NT72 were added migrated at least 40 µm, alternatively at least 50 µm, alternatively at least 60 µm, alternatively at least 70 µm over 24 hours.
There was very little closure of the wounds in which proparacaine and tetracaine were added. […] In contrast, control cells substantially closed the defect within 24 hours.

For data set [3], the system named is rabbit cornea. Put plainly: Wound healing after excimer laser keratectomy. Format: in vivo, rabbits. On the procedure: Anesthetized rabbits were placed under an operating microscope, a sterile lid speculum placed in the right eye, and a 6.5 mm excimer laser ablation of 75 microns centered on the pupil was made using a Ladarvision 4000 excimer laser. A single drop of moxifloxacin 0.1 % was used at the end of the procedure. SAR001 (NT71, 0.1% w/w), SAR002 (NT72, 0.1 % w/w), or NT69 was instilled at the end of the procedure and repeated at 4 hour intervals. Control animals underwent the same surgical procedure. Standard doses of tetracaine (0.5% w/w) or proparacaine (not shown) were instilled at the end of the procedure and at 4 hour intervals thereafter.
Fluorescein (1%) was instilled into the right eye at times 0, 1, 2, 6, 12, 36, 48, 72, 96, and 120 hours after the procedure and the size of the epithelial defect measured via slit lamp photography. Degree of blinking, tearing, conjunctival injection, anterior chamber inflammation, and intraocular pressure were evaluated.

The subject of data set [4] is rabbit cornea. In words: In vivo superficial keratotomy, administration every 2 hours for 36 hours. Also on record: species or system rabbits. The method, then:
In vivo superficial keratotomy experiments were performed on rabbits to access healing effects in an animal model.
Starting with equivalent circular wounds of 6.5 mm diameter (33 mm^2), after 36 hrs of administration every 2 hours of 1 mg/mL NT71(SAR001), NT72 (SAR002), tetracaine or saline (control), the persistent epithelial defect (wound) size was: • Control (saline) 4 mm^2 • Tetracaine 14.4 mm^2 • SAR001 2.8 mm^2 • SAR002 4.8 mm^2

Square brackets hold non-standard residues; d marks the D form. Peptide text beside a SMILES is read from it. Ala(indol-4-yl) = N[C@@H](Cc1cccc2[nH]ccc12)C(=O)O; NMeR = CN[C@@H](CCCNC(=N)N)C(=O)O; Tle = CC(C)(C)[C@H](N)C(=O)O; Dab = NCC[C@H](N)C(=O)O Some results are limits rather than exact numbers.

Turning to `CN[C@@H](CCCNC(=N)N)C(=O)N[C@@H](CCN)C(=O)N1CCC[C@H]1C(=O)N[C@@H](Cc1cccc2[nH]ccc12)C(=O)N[C@H](C(=O)N[C@@H](CC(C)C)C(=O)O)C(C)(C)C` [NT71] (H-[NMeR][Dab]P[Ala(indol-4-yl)][Tle]L-OH), the “corneal cells died, compared to untreated cells” value in the data set on intact rabbit cornea is reported as < 20%.

Turning to `CC(C)C[C@H](NC(=O)[C@@H](NC(=O)[C@H](Cc1cccc2[nH]ccc12)NC(=O)[C@@H]1CCCN1C(=O)[C@H](N)CCCCN)C(C)(C)C)C(=O)O` [NT72] (H-[dK]P[Ala(indol-4-yl)][Tle]L-OH), in the data set on intact rabbit cornea, the “corneal cells died, compared to untreated cells” value was < 20%.

Regarding `CCCOc1ccc(C(=O)OCCN(CC)CC)cc1N` [proparacaine], the “animals with incomplete disappearance of the defect” value in the data set with rabbit cornea [1] (at 96-120 hours, 0.5% proparacaine every 4 hours) is 40%. In addition, the “time to disappearance of epithelial defect” value in the data set with rabbit cornea [1] (every 4 hours for 5 days, neurotensin analogs 0.6 mg/ml, proparacaine 0.5%) lay within 96 to 120 h. In addition, in the data set with intact rabbit cornea (5 mM), the “death of corneal cells” value is “almost all”. For the same compound, in data set [2], the closure of scratch entry is on record as “did not close”.

Consider `CCCCNc1ccc(C(=O)OCCN(C)C)cc1` [tetracaine], for which, in the data set on rabbit cornea [3] (instilled at 4 hour intervals, SAR001, SAR002 0.1% w/w, tetracaine 0.5% w/w, FIGURE 11), the “time to disappearance of epithelial defect” value fell in the range of 96 to 110 h. The “animals with incomplete disappearance of the defect” value in the data set on rabbit cornea [3] (tetracaine 0.5% w/w at 4 hour intervals) came to 50%. Also, in the data set with intact rabbit cornea (0.5 mM), the “death of corneal cells” value is “about half”. Moreover, in the data set with intact rabbit cornea (1 mM), the “death of corneal cells” value is recorded as “almost all”. For the same compound, in data set [2], the closure of scratch entry is “did not close” and the “rate of scratch closure as compared to control” value is listed as “greatest delay in monolayer closure”. The “persistent epithelial defect (wound) size” value in the data set with rabbit cornea [4] (after 36 hrs, 1 mg/mL every 2 hours, starting wound 33 mm^2) was determined as 14.4 mm^2. In the data set with rabbit cornea [4] (after 48 hours), the state of wound entry is “residual epithelial defect was still present”.

Values taken from patent EP2131651B1 (Sarentis Therapeutics, Inc., priority 2007, dated 2013).
